Laboratory results reported in patent publication US12702692B2, “Therapeutic use of calcium-activated chloride channel peptide activator” (CENTRE NATIONAL DE LA RECHERCHE SCIENTIFIQUE, priority 2020, dated 2026).

Assays:
[1] = Acute effect on tear fluid secretion (tearing rate, phenol red thread) in naive rats; type: in vivo, Sprague-Dawley rats
Method: Sprague-Dawley rats (males, around 200 g) were purchased from Charles River and adapted one week before processing the experiment. Two-three rats per cage were housed in a controlled environment of 12 hours intervals of light/dark cycles and free access to food and water. Animal experiments were approved by the Animal Care and Use Committee of the University of Barcelona (CEEA) and the […] de Territori i Sostenibilitat of Generalitat de Catalunya, Catalonia, Spain (319/19; 10935) and followed the ethical guidelines of the International Association for the Study of Pain. […] (also named Nter 13 peptide or […] NO: 2)) and scramble ([…] NO: 7)) peptides were purchased from GenScript Biotech (Leiden, Netherlands) and provided by CNRS. Both peptides were dissolved in Phosphate Buffered Saline (PBS) at 10 mM and used for topical ocular application (5 ul per eye). Tear fluid secretion (tearing rate) was measured using phenol red threads (Zone-Quick, Menicon, Nagoya, Japan) placed on the lower eyelid for 30 s without topical anesthesia (Trost, 2007; Acosta 2013). Tearing rate was determined with an accuracy of ±0.5 mm by measurement of the length of the red portion of the thread. After habituation of the animals, basal tearing rate was measured in both eyes before any topical application of peptides. Then, animals were divided in different groups and a solution containing vehicle (PBS), amiloride (1 mM), peptide N13 or peptide scramble was topically applied to the ocular surface (5 μl) and tearing rate was measured at 1, 3, 6, 12 and 24 h. Tearing rate measurements were done blind to the treatment received by the animals. Data are presented as mean±standard error of the mean (SEM). Statistical differences between different sets of data were assessed by performing repeated measured One-way ANOVA plus Bonferroni's post-tests (each data point in an experimental group vs. basal values) or repeated measured Two-way ANOVA plus Bonferroni's post-tests (each data point in […] group vs. Scramble or Vehicle group; or point in […] or amiloride groups vs. Vehicle group) using Prism 9 (GraphPad Software, San Diego, CA). The significance level was set at p<0.05 in all statistical analyses.

TMEM16A [2] = molecular target: T1, TMEM16A (Mus musculus, UniProt Q8BHY3); assay: Whole-cell patch-clamp of voltage-dependent Cl- current in proximal convoluted tubule (PCT) cells; type: cell-based; details: for Cl- current density after inhibitor: wild type PCT cells, untreated wild type 18.07±1.21
T1 construct: endogenous in cells; host or cells: primary mouse kidney proximal convoluted tubule (PCT) cells
Method: (§1) mTMEM16A (kindly provided by Dr Lily Yeh Jan) and hKCNE1 cDNA were subcloned in pIRES2eGFP, pXOOM, pcDNA3.1, pCDNA3.1-GFP and pCMV-HA vectors. Truncations and mutations on KCNE1 were generated by PCR. For SiMPull experiments, HA-tags were fused to the N-terminus of sequences, whereas GFP-tags were fused to C-terminal part. HEK293T and PCT cells were transiently co-transfected using Lipofectamine 2000 or the calcium phosphate method with a total amount of 1 and 3.5 μg of DNA, respectively, and seeded on 18 mm diameter coverslips. HEK cells were maintained in DMEM with 5% FBS on poly-L-lysine-coated glass coverslips in 12 well plates. PCT cells from wild type and knock-out mice were microdissected as described previously and maintained in F12 (Gibco) on collagen-coated glass coverslips.
(§2) HEK293T and PCT cell electrophysiology was performed 24-48 h after transfection. For whole-cell patch-clamp experiments cells were recorded in a bath solution containing (in mM) 150 NaCl, 5 KCl, 2 CaCl2 and 10 HEPES, pH 7.4 and 0.05% BSA. The glass pipettes (2-5 MΩ of resistance) were filled with (in mM) 5 NaCl, 135 CsCl, 2 MgCl2, 5 EGTA, 10 HEPES, pH 7.3. Cells were recorded either after incubation of 30 min with the peptide or during perfusion with the peptide. Total calcium concentration was calculated with Maxchelator (maxchelator.standford.edu) for a temperature of 20° C. HEK293T and PCT cells were recorded at room temperature in voltage-clamp mode using an Axopatch 200A (Molecular Devices) amplifier. Signals were filtered at 10 kHz and digitalized at 20 kHz. Whole-cell currents were elicited by voltage-ramps (from −100 to +100 mV, 1 s) and I-V stimulation pulses (from −100 to +100 mV in 20 mV increments, 1 s each pulse), holding the cells at −80 mV. Current densities were measured at +100 mV. Cell recordings, data acquisition and analysis of electrophysiology experiments were performed using pClamp software (Molecular Devices).
T1 sequence (P23299 whole entry partner, one chain of several): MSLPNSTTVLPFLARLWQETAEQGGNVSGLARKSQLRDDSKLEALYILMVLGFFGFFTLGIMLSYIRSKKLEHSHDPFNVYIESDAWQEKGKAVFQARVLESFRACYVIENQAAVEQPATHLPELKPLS

TMEM16A [3] = molecular target: T2, TMEM16A (Mus musculus, UniProt Q8BHY3); assay: Whole-cell patch-clamp of HEK293T cells expressing TMEM16A; type: cell-based; details: for inhibition of KCNE1-TMEM16A chloride current: HEK293T co-expressing TMEM16A and KCNE1; for effect of peptide application on TMEM16A current: HEK293T cells expressing TMEM16A alone, 100 μM for Nter13, S38G and rat peptides
T2 construct: expressed in transfected cells; host or cells: HEK293T
T2 sequence (Q8BHY3 1-960): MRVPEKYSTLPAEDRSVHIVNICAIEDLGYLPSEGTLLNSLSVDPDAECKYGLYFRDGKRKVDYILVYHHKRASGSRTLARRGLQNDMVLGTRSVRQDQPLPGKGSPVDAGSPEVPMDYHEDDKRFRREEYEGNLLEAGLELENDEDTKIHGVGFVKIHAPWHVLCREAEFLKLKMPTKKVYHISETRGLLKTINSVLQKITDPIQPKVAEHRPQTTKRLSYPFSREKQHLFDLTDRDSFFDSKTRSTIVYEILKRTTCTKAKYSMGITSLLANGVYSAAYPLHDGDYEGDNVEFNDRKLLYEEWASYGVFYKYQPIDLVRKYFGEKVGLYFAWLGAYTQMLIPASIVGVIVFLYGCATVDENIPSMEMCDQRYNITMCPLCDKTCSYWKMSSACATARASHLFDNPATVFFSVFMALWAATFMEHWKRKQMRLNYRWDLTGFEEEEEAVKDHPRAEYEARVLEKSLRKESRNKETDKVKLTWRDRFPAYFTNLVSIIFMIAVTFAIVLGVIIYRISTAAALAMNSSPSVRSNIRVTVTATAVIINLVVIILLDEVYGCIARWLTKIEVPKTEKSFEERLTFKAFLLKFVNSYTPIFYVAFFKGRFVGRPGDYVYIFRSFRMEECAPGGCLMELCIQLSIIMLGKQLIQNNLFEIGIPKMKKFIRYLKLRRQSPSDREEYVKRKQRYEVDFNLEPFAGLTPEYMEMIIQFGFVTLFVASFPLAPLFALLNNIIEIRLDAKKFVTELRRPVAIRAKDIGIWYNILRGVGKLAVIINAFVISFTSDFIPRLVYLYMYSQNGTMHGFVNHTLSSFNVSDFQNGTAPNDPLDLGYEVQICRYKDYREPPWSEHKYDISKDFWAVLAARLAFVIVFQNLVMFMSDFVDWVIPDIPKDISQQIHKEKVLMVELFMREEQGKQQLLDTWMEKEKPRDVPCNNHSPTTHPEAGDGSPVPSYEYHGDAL
Method: as §1, §2

SK4 channel = molecular target: T3, SK4 channel (Homo sapiens, UniProt O15554); assay: Patch-clamp of HEK293T cells transfected with SK4 and KCNE1; type: cell-based; details: absence of calcium
T3 construct: expressed in transfected cells
Method: as §2

KCNQ1 = molecular target: T4, KCNQ1 (Homo sapiens, UniProt P51787); assay: Whole-cell patch-clamp of cells transfected with KCNQ1 and KCNE1 variants; type: cell-based; details: co-transfected with wild type KCNQ1, current densities at +40 mV
T4 construct: expressed in transfected cells

[4] = KCNE1 form co-expressed with TMEM16A in HEK293T cells

Compound: N=C(N)NC(=O)c1nc(Cl)c(N)nc1N [Amiloride, amiloride, reference compound]
- effect on tearing rate compared with Vehicle ([1]; N13ter 10 mM, amiloride 1 mM, vehicle PBS): did not show a statistically significant effect
- eyes with increased tearing rate between 1 h to 3 h ([1]; amiloride 1 mM topical): 7 out of 14

Compound: COc1ccccc1/C=N/NC(=O)COc1ccc(Cl)cc1C [Ani9, reference compound]
- Cl- current density after inhibitor (TMEM16A [2]; Ani9 5 μM): 2.88±0.38 pA/pF
- inhibition of KCNE1-TMEM16A chloride current (TMEM16A [3]; Ani9 300 nM): inhibited
- effect of Ani9 on Nter13-induced TMEM16A current (TMEM16A [3]; Ani9 5 μM after Nter13 100 μM, HEK293T expressing TMEM16A alone): reversion

Compound: O=C(O)c1cccnc1Nc1cccc(C(F)(F)F)c1 [NFA, niflumic acid, reference compound]
- Cl- current density after inhibitor (TMEM16A [2]; NFA 100 μM): 4.51±0.28 pA/pF
- inhibition of KCNE1-TMEM16A chloride current (TMEM16A [3]; NFA 100 μM): inhibited

Compound: CCc1c(C)nc(SCC(=O)Nc2nc(-c3ccc(OC)cc3)cs2)[nH]c1=O [T16Ainh-A01, reference compound]
- Cl- current density after inhibitor (TMEM16A [2]; A01 10 μM): 5.52±0.72 pA/pF
- inhibition of KCNE1-TMEM16A chloride current (TMEM16A [3]; T16A(inh)A01 10 μM): inhibited

Compound: KCNE1: human KCNE1 protein of 129 amino acids (NP_000210.2), expressed from cDNA
- voltage-dependent Cl- current density after rescue (TMEM16A [2]; kcne1−/− PCT cells transfected with KCNE1 cDNA, KO 5.37±0.56): 21.59±1.38 pA/pF
- effect of KCNE1 overexpression on SK4 current (SK4 channel): did not induce any increase
- reversal potential (TMEM16A [3]; KCNE1 co-expressed with TMEM16A in HEK293T cells): −4.8±1.3 mV
- current density at +100 mV (TMEM16A [3]; [4]): 18.1±2.8 pA/pF
- current density at +100 mV (TMEM16A [3]; TMEM16A co-expressed with KCNE1, 1 mM BAPTA): 21.98±5.32 pA/pF

Compound: LLAKRGRDSGPSR (SEQ ID NO: 7) (Synthetic scramble peptide) [scrambled control peptide, reference compound]
- tearing rate at 12 h ([1]; 10 mM topical, 5 μl per eye, n=20 eyes, basal 7.65±0.49 mm (N13ter), 8.10±0.54 mm (Scramble)): 6.45±0.34 mm
- effect on tearing rate ([1]; N13ter vs Scramble study, both 10 mM topical): sustained small decrease
- effect of peptide application on TMEM16A current (TMEM16A [3]): no effect

Compound: S38G: KCNE1 S38G polymorphism variant (full protein, not the hS38G peptide)
- effect of KCNE1 polymorphism on KCNQ1 regulation (KCNQ1): do not impair the KCNQ1 regulation
- current density at +100 mV (TMEM16A [3]; [4]): 6.96±0.78 pA/pF

Compound: T7I: KCNE1 disease mutation T7I, not in the regulating domain, control
- current density at +100 mV (TMEM16A [3]; [4]): 24.69±1.57 pA/pF

Compound: hS38G: hS38G peptide (SEQ ID NO: 5), N13 presenting S38G polymorphism (LARRSPRGGDGKL; hN13 S38G) [reference compound]
- effect of peptide application on TMEM16A current (TMEM16A [3]): no effect

Compound: rN13: rat N13 peptide (SEQ ID NO: 6) (LARRSQLRDDSKL; amino acid residues between positions 30 to 42 of the rat KCNE1 protein sequence)
- effect of peptide application on TMEM16A current (TMEM16A [3]): only a small effect
